Test results published in US12714702B2, “Compositions and methods for treating or preventing pulmonary hypertension” (priority 2020, dated 2026).

Key:
[1] = system: p62, BMPR2, LC3B-II, p21, p65, phospho-AKT, phospho-p65 in right lung; assay: SU5416/hypoxia model, western blot of right lung homogenate; format: in vivo, rat
Text: FIGS. 18E-18F show western blot analysis of tissue (right lung) lysates for expression of various disease marker proteins including p62, BMPR2, LC3B-II, p21, p65, p53, phosphorylated-p53 and phosphorylated-AKT using corresponding monoclonal antibodies.
The accumulation of p62, a protein degraded by autophagy pathways, is indicative of autophagy inhibition.

[2] = system: serum-starved bovine PASMCs; assay: Annexin V FITC assay (apoptotic induction); format: cell-based; conditions: 2.5 or 5 μM, 24 hours, concentration-dependent
Protocol: (§1) In FIGS. 9A-9B, PASMC were serum starved for 24 hours, and then treated with varying QA concentrations in serum-starved media. Quantification was performed using Cyto-ID® autophagy kit and Annexin-V/FITC apoptosis kit. […] In FIG. 9C, autophagy inhibition by QA (5 μM) as depicted by increase in LC3B-II concentration in bovine high altitude PASMC quantified by western blot assay kit. Data represent mean±SD (n=3). *p<0.05.
Bovine PASMC were serum starved in FBS-free media for 24 hours, and then treated with QA for 24 hours at various concentrations (0, 2.5, or 5 μM). Annexin V levels were measured with Annexin V FITC assay kit (#600300, Cayman Chemical, Ann Arbor, MI) according to manufacturer's manual.
An apoptotic induction assay, i.e., Caspase-3 assay was performed to understand QA's impact on cellular apoptosis in primary human PASMCs following 6-hour treatment. […] Moreover, another apoptotic induction assay, i.e., Annexin V FITC assay was also used to measure the effects of QA on serum-starved bovine PASMCs.
(§2) In other independent experiments, QA's ability to modulate autophagy/apoptotic pathways was quantified in vitro in serum-starved bovine PASMC cells. Similar results were observed.

[3] = system: serum starved human PASMC; assay: Proliferation after cell starvation, CyQUANT Direct; format: cell-based; conditions: Day 5 at 3.1 and 6.2 μM, Day 3 at 6.2 μM
Protocol: Primary human PASMC were treated with QA up to 6.2 μM concentration. Cell proliferation was quantified by Cyquant Direct.
Briefly, diseased IPAH SMC II cells were seeded in TC-treated 96 well plates in FBS-rich medium and were allowed to adhere overnight. Following day, FBS-rich media was replaced with FBS-Starved media (0% FBS). Cells were further incubated at 37° C./5% CO2 for 24 hours followed by treatments with varying concentrations of QA (1.5-, 3.1-, and 6.2-μM) with dilutions being made in FBS-Starved media. Cellular proliferation was measured as described herein.
In-vitro studies to measure anti-proliferative activity of QA against pulmonary hypertension were performed using primary human PASMC (FIG. 3), primary bovine PASMC (FIG. 4) and high altitude PASMC (HAPASMC) (FIG. 4). HAPASMC, due to prolonged hypoxia exposure, are known to be hyper-proliferative in regular culture conditions, while hyper-proliferation was induced in PASMC cells by 24 hour serum starvation, or by exposure to 5-hydroxytryptamine (5-HT). […] As hyper-proliferation of vascular smooth muscle cells is one of the primary underlying causes for clinical progression of PH pathogenesis, these experiments highlight the therapeutic potential of QA in reversing PH symptoms and progression at non-toxic doses.

[4] = system: Ki67, PCNA, vWF, α-SMA in SU5416/Hypoxia-induced PAH animal lung tissue; assay: SU5416/hypoxia model, immunofluorescence of lung tissue; format: in vivo, rat; conditions: SU5416/hypoxia rats
Protocol: Preclinical in-vivo studies for QA were earlier performed at a dose of 10 mg/kg once-a-day in a SU5416/Hypoxia-induced preventative/prophylactic PAH model. Hemodynamic parameters were collected and lung tissues were also collected and were sectioned for visualizing the impact of QA treatment on various PAH biomarkers in-vivo.
Paraffin embedded tissue sections for control animals, hypoxia induced PAH animals and QA treated animals were further subjected to immunofluorescent staining to analyze expression levels of essential molecular markers. Deparaffinization of tissues was done by exposing tissue sections to a solution of xylene for 3 minutes twice followed by washing with 200 proof absolute 99.8% ethanol and 50% ethanol. Tissues were further washed with 1×PBS twice to ensure complete deparaffinization. Similar protocol was followed hereon for immunofluorescent staining of tissue sections.

[5] = system: serum starved bovine PASMCs; assay: Autophagy inhibition assay, Cyto-ID autophagy detection kit; format: cell-based; conditions: QA 2.5 and 5 μM, 24 hours
Protocol: as §1
Bovine PASMCs were serum starved in FBS-free media for 24 hours, and then treated with QA for 24 hours at various concentrations (0, 2.5, or 5 μM). Autophagic inhibition (lysosomal fusion with autophagosomes) was measured with Cyto-ID® autophagy detection kit (Enzo Lifesciences Inc., Farmingdale NY) according to manufacturer's manual.
Autophagy inhibition (lysosomal fusion with autophagosomes) by QA was examined. Bovine PASMCs were serum starved in FBS-free media for 24 hours, and then treated with QA (2.5 and 5 μM) for 24 hours. Autophagic inhibition was measured with Cyto-ID® autophagy detection kit. […] QA-induced autophagy inhibition by targeting LC3B-II expression was examined using HAPASMCs.
as §2

[6] = system: pulmonary arterioles of SU5416/hypoxia-induced PAH animals; assay: SU5416/hypoxia model, muscularization, trichrome staining and medial wall thickness; format: in vivo, rat
Protocol: Adult male rats were injected with SU5416 (20 mg/kg) subcutaneously and were kept under hypoxia (10% O2) for 3 weeks. QA was administered once-a-day intraperitoneally at a dose of 10 mg/kg for 21 days starting from Day 1. […] Data represent mean±SD (n=4-5). *p<0.05.
At the end of treatment period with QA, animals were sacrificed. Chest was surgically opened to expose rat lungs. Lung tissues were collected, and blinded tissues were sectioned by Reveal Bio (San Diego, CA) at 5 μm thickness. 2 tissue sections for each animal were earmarked for Trichrome staining; and 8 more sections were provided blank for custom staining.
Tissue sections were stained using trichrome staining to visualize pulmonary arteries for all treatment and control groups. Stained lung sections were imaged using Zeiss Axio Scope A1 microscope equipped with Axiocam 506 color camera and Zeiss Zen 2.3 software. Medial wall thickness for similar sized pulmonary arteries was measured using a Motic BA210 microscope and measurements were made using Motic Image plus 2.0 software. Five pulmonary artery walls were analyzed per animal (n=2 to 5)
After 3 weeks, hemodynamic studies were performed.

SMILES: CCN(CC)CCCC(C)Nc1c2ccc(Cl)cc2nc2ccc(OC)cc12 (stereo not drawn) [QA, quinacrine]
- autophagy marker LC3B-II ([1]; right lung homogenate): accumulated
- autophagy marker p62 ([1]; right lung homogenate): accumulated
- accumulation of BMPR2 ([1]; right lung homogenate, in comparison to control animals): > 2 fold
- expression of p21 protein ([1]; tissue lysates): significant increase
- expression of phospho-AKT ([1]; tissue lysates): decreased
- expression of phospho-p65 ([1]; tissue lysates): decreased
- p65 ([1]; tissue lysates): significant reduction
- apoptotic induction (fluorescence intensity of Annexin-V stained cells) [2]: significantly enhanced apoptotic induction
- cellular hyper-proliferation [3]: Significant reduction
- expression of Ki67 [4]: reduction in expression
- expression of PCNA [4]: reduction in expression
- expression of vWF [4]: did not show any reduction in expression
- expression of α-SMA [4]: did not show any reduction in expression
- accumulation of fluorescent dye in autophagosomes (autophagy inhibition) [5]: significantly enhanced the accumulation
- medial wall thickness in pulmonary arterioles ([6]; SU5416/hypoxia rats (FIG. 14D)): significant reduction
- vessel muscularization (less completely muscularized blood vessels than control) ([6]; SU5416/hypoxia rats, pulmonary arterioles): 3.5 folds
- collagen and muscular deposition in pulmonary arterioles ([6]; SU5416/hypoxia rats, trichrome staining): significant reduction
- reduction in medial wall thickness of pulmonary arteries ([6]; compared to SU5416/hypoxia-induced PAH animal tissue sections (FIG. 16)): about 2 fold
